Laboratory results: patent US20200163332A1, “METHOD OF IMPROVING CROP SAFETY” (Bayer CropScience LP, priority 2017, published 2020)
Values joined by “and” are separate entries in the source; they are usually repeats but may differ in a detail not shown here. Identical values can stand only once. Like-named read-outs stand apart in the source and are kept apart here.

Legend:
[1] = system: Soybean seeds of the variety Williams 82; test: Example A: soybean seed treatment with antioxidants, with or without Fluopyram; cotyledon total and healthy area; details: for Average Cotyledon Area (mm^2) Growth Promotion with Antioxidant / Increase in Healthy Area % Difference: antioxidant at effective concentration versus no antioxidant; for Average Cotyledon Area / Average % Healthy Area / Average Healthy Area: after 10 days
[2] = system: Soybean seeds of the variety Williams 82; details: with ILEVO 0.15 mg ai per seed, versus ILEVO alone, CaCl2•2 H2O 10.000 mM, about 10 days after planting
Description: All solutions were pH adjusted to pH 5.6-6.2. In addition, a seed treatment was prepared with a cobalt and molybdenum combination (“CoMo”) containing the cobalt chloride and sodium molybdate applied at the respective doses shown in Table 9. A commercial zinc solution was also applied as a seed treatment. “Macro”, “Micro” and “Complete” nutrient solution cocktails which combined all the respective nutrients from Table 9 into one nutrient solution were included as seed treatments.
About 10 days after planting the treated seeds, the emerging seedlings were analyzed to determine their average plant height and average unifoliate leaf area.

[3] = system: Soybean seeds of the variety Williams 82; details: for Average Area (Total Leaf Area) / Average Height (Plant Height): 15 Days after Planting
Description: Plant heights and total leaf area were determined 15 days after planting. The total leaf area was calculated by adding the unifoliate leaf area and the trifoliate leaf area of a soybean plant. Between 11 and 15 replicates were evaluated for each measurement. Average values along with their standard errors are reported.

[4] = UTC seeds (no FLU) plus antioxidant at effective concentration (Beta-Carotene 200 μM, Co-enzyme Q10 3 μM, Meso-Zeaxanthin 250 ppm, L-ascorbic acid 800 ppm, alpha tocopherol phosphate disodium 100 ppm)
[5] = UTC seeds (no FLU) plus antioxidant at effective concentration (as in E7)
[6] = seeds treated with FLU 0.15 mg ai/seed plus antioxidant at effective concentration (200 μM, 3 μM, 250 ppm, 800 ppm, 100 ppm as in E4)
[7] = seeds treated with FLU 0.15 mg ai/seed plus antioxidant at effective concentration (Beta-Carotene 200 μM, Co-enzyme Q10 3 μM, Meso-Zeaxanthin 250 ppm, L-ascorbic acid 800 ppm, alpha tocopherol phosphate disodium 100 ppm)
[8] = ILEVO 0.15 mg ai per seed + 10 mM CaCl2•2 H2O
[9] = ILEVO 0.15 mg ai per seed + 75 mM CaCl2•2 H2O
[10] = ILEVO 0.15 mg ai per seed + 150 mM CaCl2•2 H2O
[11] = calcium chloride added to ILEVO seed treatment versus ILEVO alone, effect increased at higher concentrations
[12] = two additional soybean varieties besides Williams 82
[13] = FLU 0.15 mg ai/seed alone (antioxidant 0 μM / 0 ppm; control of the respective antioxidant series)

Meso-Zeaxanthin was tested, and the “Average Cotyledon Area (mm^2) Growth Promotion with Antioxidant” value (from here on “Average Cotyledon Area … with Antioxidant”) ([1]; FLU-treated seeds) was 78.23 mm^2, the “Increase in Healthy Area % Difference” value ([1]; FLU-treated seeds) was 10.05% and the “Average Cotyledon Area” value [1, 4] was 350.59 mm^2. The “Average % Healthy Area” value [1, 5] was 99.66%, the “Average Healthy Area” value [1, 5] was 349.18 mm^2 and the “Average Cotyledon Area … with Antioxidant” value ([1]; UTC seeds (no FLU)) was 30.66 mm^2. The “Increase in Healthy Area % Difference” value ([1]; UTC seeds (no FLU)) was 4.59%, the “Average % Healthy Area” value [1, 6] was 69.68% and the “Average Healthy Area” value [1, 6] was 230.46 mm^2. For the same compound, the “Average Cotyledon Area” value [1, 7] was 331.07 mm^2.
For `[Ca+2].[Cl-].[Cl-]` [CaCl2•2 H2O, calcium chloride], the average plant height ([2]; FIG. 1) was “significantly increased”, the “average unifoliate leaf area” value ([2]; FIG. 2) was “significantly increased” and the “Average Area (Total Leaf Area)” value [3, 8] was 46.70 cm^2. The “Average Height (Plant Height)” value [3, 8] was 12.93 cm, the “Average Area (Total Leaf Area)” value [3, 9] was 53.89 cm^2 and the “Average Height (Plant Height)” value [3, 9] was 13.69 cm. For the same compound, the “Average Area (Total Leaf Area)” value [3, 10] was 53.03 cm^2, the “Average Height (Plant Height)” value [3, 10] was 14.31 cm and the “height of the soybean plants” value [3, 11] was “significantly increased”. The “total leaf area of the soybean plants” value [3, 11] was “significantly increased”, the “effect on height of soybean plants treated with ILEVO” value [3, 12] was “positive effect” and the “effect on leaf area of soybean plants treated with ILEVO” value [3, 12] was “positive effect”.
`COC1=C(OC)C(=O)C(C/C=C(\C)CC/C=C(\C)CC/C=C(\C)CC/C=C(\C)CC/C=C(\C)CC/C=C(\C)CC/C=C(\C)CC/C=C(\C)CC/C=C(\C)CCC=C(C)C)=C(C)C1=O` [Co-enzyme Q10] was tested, and the “Average Cotyledon Area … with Antioxidant” value ([1]; FLU-treated seeds) was 19.49 mm^2, the “Increase in Healthy Area % Difference” value ([1]; FLU-treated seeds) was 10.25% and the “Average Cotyledon Area” value [1, 4] was 416.55 mm^2. The “Average % Healthy Area” value [1, 5] was 100.00%, the “Average Healthy Area” value [1, 5] was 416.55 mm^2 and the “Average Cotyledon Area … with Antioxidant” value ([1]; UTC seeds (no FLU)) was 47.57 mm^2. For the same compound, the “Increase in Healthy Area % Difference” value ([1]; UTC seeds (no FLU)) was 0.00%, the “Average % Healthy Area” value [1, 6] was 76.54% and the “Average Healthy Area” value [1, 6] was 240.72 mm^2. For the same compound, the “Average Cotyledon Area” value [1, 7] was 312.31 mm^2.
With `O=C(NCCc1ncc(C(F)(F)F)cc1Cl)c1ccccc1C(F)(F)F` [FLU, Fluopyram, reference compound] the “Average % Healthy Area” value [1, 13] was 59.63% and 67.93% and 68.20% and 60.08% and 66.29%, the “Average Cotyledon Area” value [1, 13] was 252.85 mm^2 and 307.56 mm^2 and 290.71 mm^2 and 237.73 mm^2 and 292.81 mm^2 and the “Average Healthy Area” value [1, 13] was 153.20 mm^2 and 210.37 mm^2 and 199.35 mm^2 and 142.71 mm^2 and 195.10 mm^2.
